Bounds are passed on as bounds.

Test [1] concerns the target IDH1 wt/IDH1 R132C heterodimer (Homo sapiens (Human), UniProt O75874, R132C). As to the kind of experiment: In vitro assay for IDH1m R132C inhibitors, IDH1 wt/IDH1 R132C heterodimer, NADPH depletion (diaphorase/resazurin). It is filed as biochemical. The conditions noted are these: NADPH/NADP. Summed up: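 Remaining NADPH was measured by diaphorase/resazurin conversion (5 min, 25 °C) as resorufin fluorescence, Ex 544/Em 590. DMSO was diluted 1:50 into the reaction, and IC50s were derived.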
(In general: Resazurin is reduced to fluorescent resorufin, in cell work by metabolically active cells.)

In test [2] the target is IDH1-R132H homodimer enzyme (Homo sapiens (Human), UniProt O75874, R132H). As to the kind of experiment: In vitro assay IDH1-R132H homodimer, NADPH depletion assay with NADPH/NADP preincubation. The conditions noted are these: 5 μM NADPH and 37.5 μM NADP. It is filed as biochemical. Summed up:
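Conversion of alpha-ketoglutarate to 2-hydroxyglutarate tracked by NADPH depletion. Reaction started with 5 mM alpha-ketoglutarate plus NADPH substrate mix (50 μl total), 60 min at room temperature. Leftover NADPH quantified via diaphorase/resazurin fluorescence.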

For test [3], the system named is U87MG pLVX-IDH2 R140Q-neo cells. As to the kind of experiment: U87MG pLVX-IDH2 R140Q-neo cell based assay, 2-HG by LC-MS. The conditions noted are these: Homo sapiens, U-87 MG.
The test system of test [4] is Neurosphere cells (TS603). As to the kind of experiment: Cellular assay for IDH1m R132H inhibitors, 2-HG by LC-MS in neurosphere cells (TS603). The conditions noted are these: 2-HG in media at 48 hours. It is filed as cell-based. Summed up:
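TS603 neurosphere cells in NeuroCult medium were dosed with compound (0.25% DMSO final) at 37 C, 5% CO2. After 48 hours, medium 2-HG was measured by LC-MS. At 72 hours, viability was read by CellTiter-Glo luminescence.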

Another test addresses IDH2 R140Q (Homo sapiens (Human), UniProt P48735, R140Q). Briefly: In vitro assay for IDH2m R140Q inhibitors, cofactor depletion assay. It is filed as biochemical. The following applies: IDH2 R140Q enzyme. The essentials:
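Remaining cofactor measured fluorimetrically: diaphorase/resazurin Stop Mix […], halting the reaction. Before that, mutant enzyme and compound sat 1 h at RT, then substrate mix (4 μM NADPH, 1.6 mM α-KG) was added for 16 h at RT.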

Chain of IDH2 R140Q (P48735 40-452 R140Q): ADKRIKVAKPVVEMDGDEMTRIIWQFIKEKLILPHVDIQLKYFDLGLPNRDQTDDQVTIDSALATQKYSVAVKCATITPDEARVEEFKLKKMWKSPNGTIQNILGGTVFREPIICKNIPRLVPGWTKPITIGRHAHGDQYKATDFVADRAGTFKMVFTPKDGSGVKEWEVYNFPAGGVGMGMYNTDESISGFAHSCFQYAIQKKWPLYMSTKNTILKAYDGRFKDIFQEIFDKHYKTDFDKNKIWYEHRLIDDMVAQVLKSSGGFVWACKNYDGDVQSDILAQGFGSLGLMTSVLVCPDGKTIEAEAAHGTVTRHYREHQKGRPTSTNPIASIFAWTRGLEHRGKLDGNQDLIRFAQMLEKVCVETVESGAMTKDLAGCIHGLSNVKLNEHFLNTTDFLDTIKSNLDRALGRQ
Chain of IDH1-R132H homodimer enzyme (O75874 whole entry R132H): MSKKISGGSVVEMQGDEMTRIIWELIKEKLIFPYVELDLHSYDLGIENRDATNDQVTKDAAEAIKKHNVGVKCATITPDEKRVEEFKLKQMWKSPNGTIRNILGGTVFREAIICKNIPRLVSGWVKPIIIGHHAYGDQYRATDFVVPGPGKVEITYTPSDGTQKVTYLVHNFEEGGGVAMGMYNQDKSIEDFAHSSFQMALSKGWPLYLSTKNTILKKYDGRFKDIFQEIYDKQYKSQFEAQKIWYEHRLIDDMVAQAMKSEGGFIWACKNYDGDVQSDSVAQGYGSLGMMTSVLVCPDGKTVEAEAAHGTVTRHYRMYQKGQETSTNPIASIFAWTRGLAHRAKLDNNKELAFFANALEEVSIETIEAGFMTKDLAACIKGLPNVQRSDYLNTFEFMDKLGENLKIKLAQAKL
Chain of IDH1 wt/IDH1 R132C heterodimer (O75874 whole entry R132C): as the sequence (O75874 whole entry R132H) above, with H132C counted along it
Chain of IDH1 wt/IDH1 R132C heterodimer (O75874 whole entry, stated change not applied): as the sequence (O75874 whole entry R132H) above, with H132R counted along it

One may read the IC50 as the concentration that inhibits the measured activity by half. A high value points to lower potency. `N#CC1(c2cc(Nc3nc(NC4CCC(F)(F)C4)nc(-c4cccc(C(F)(F)F)n4)n3)ccn2)CC1` (centres unmarked) [Compound 151]: the 50% inhibitory concentration (IC50) (in test [1]; in test [2]; in test [3]; in test [4]; against IDH2 R140Q) was below 50 nM throughout.

For `Clc1cccc(-c2nc(NC(C3CC3)C3CC3)nc(NC(C3CC3)C3CC3)n2)n1` [Compound 131], the 50% inhibitory concentration (IC50) in test [1] was below 50 nM; in test [2], 50 to 100 nM; in test [3], below 50 nM; in test [4] it was below 50 nM; against IDH2 R140Q, below 50 nM.

`FC1(F)CCC(Nc2nc(NC3CCC(F)(F)C3)nc(-c3nccc(C(F)(F)F)n3)n2)C1` (centres unmarked) [Compound 237]: the IC50 in test [1] is below 50 nM; in test [2], 100 to 1000 nM; in test [3], below 50 nM; in test [4] it was below 50 nM; at IDH2 R140Q, below 50 nM.

As for `FC1(F)CC(Nc2nc(NC3CC(F)(F)C3)nc(-c3nccc(C(F)(F)F)n3)n2)C1` [Compound 256], the IC50 in test [1] was 50 to 100 nM; in test [2], above 1000 nM; in test [3] it was below 50 nM; in test [4], below 50 nM; against IDH2 R140Q, below 50 nM.

As for `N#CC1(c2cc(Nc3nc(NC4CC5(C4)CC(F)(F)C5)nc(-c4cccc(C(F)(F)F)n4)n3)ccn2)CC1` [Compound 229], the IC50 in test [1] is 50 to 100 nM; in test [2], 100 to 1000 nM; in test [3], below 50 nM; in test [4], below 50 nM; on IDH2 R140Q it was below 50 nM.

Take `FC1(F)CCC(Nc2nc(Nc3ccnc(C(F)(F)F)c3)nc(-c3cccc(C(F)(F)F)n3)n2)CC1` [Compound 192]: the IC50 in test [1] is below 50 nM; in test [2], 100 to 1000 nM; in test [3], below 50 nM; in test [4], below 50 nM; at IDH2 R140Q, below 50 nM.

In the case of `FC1(F)CCC(Nc2nc(NC3Cc4ccccc4C3)nc(-c3cccc(C(F)(F)F)n3)n2)C1` (centres unmarked) [Compound 152], the IC50 (in test [1]; in test [2]; in test [3]; in test [4]; at IDH2 R140Q) was below 50 nM throughout.

As for `FC1(F)CC(Nc2nc(NC3CC(F)(F)C3)nc(-c3nc(C(F)(F)F)cs3)n2)C1` [Compound 128], the IC50 (in test [1]; in test [2]; in test [3]; in test [4]; against IDH2 R140Q) was below 50 nM each time.

In the case of `FC1(F)CCC(Nc2nc(NC3CCC(F)(F)CC3)nc(-c3csc(C(F)(F)F)n3)n2)CC1` [Compound 223], the IC50 is 50 to 100 nM in test [1]; 100 to 1000 nM in test [2]; below 50 nM in test [3]; below 50 nM in test [4]; below 50 nM at IDH2 R140Q.

With `FC(F)c1cccc(-c2nc(NC3CCC(F)(F)CC3)nc(NC3CCC(F)(F)CC3)n2)n1` [Compound 224], the half-maximal inhibitory concentration (IC50) in test [1] was below 50 nM; in test [2] it was 100 to 1000 nM; in test [3], below 50 nM; in test [4] it was below 50 nM; on IDH2 R140Q, below 50 nM.

For the origin of these results see US10028961B2, “Therapeutically active compounds and their methods of use” (AGIOS PHARMACEUTICALS, INC., priority 2013, dated 2018).
